Source: patent publication US10759783B2, “Biaryl inhibitors of Bruton'S tyrosine kinase” (BIOGEN MA INC., priority 2013, dated 2020)

How the values were obtained:
[1] = biological target: T1, BTK enzyme (Homo sapiens, UniProt Q06187); test: In vitro BTK kinase assay: BTK-POLYGAT-LS assay; format: biochemical; settings: ATP 10 μM, read-out: IC50 (10uMATP)
T1 construct: purchased Upstate 14-552
How it was run: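 Human BTK activity was measured with final 10 μM ATP and 100 nM polyGAT substrate in pH 7.5 Tris buffer with 10 mM MgCl2, DTT, Triton X-100 and casein.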

[2] = biological target: BTK (phospho-BTK) in human whole blood (Homo sapiens, UniProt Q06187); test: In vitro PD assay in human whole blood (pBTK assay)
BTK (phospho-BTK) in human whole blood, sequence (Q06187 whole entry): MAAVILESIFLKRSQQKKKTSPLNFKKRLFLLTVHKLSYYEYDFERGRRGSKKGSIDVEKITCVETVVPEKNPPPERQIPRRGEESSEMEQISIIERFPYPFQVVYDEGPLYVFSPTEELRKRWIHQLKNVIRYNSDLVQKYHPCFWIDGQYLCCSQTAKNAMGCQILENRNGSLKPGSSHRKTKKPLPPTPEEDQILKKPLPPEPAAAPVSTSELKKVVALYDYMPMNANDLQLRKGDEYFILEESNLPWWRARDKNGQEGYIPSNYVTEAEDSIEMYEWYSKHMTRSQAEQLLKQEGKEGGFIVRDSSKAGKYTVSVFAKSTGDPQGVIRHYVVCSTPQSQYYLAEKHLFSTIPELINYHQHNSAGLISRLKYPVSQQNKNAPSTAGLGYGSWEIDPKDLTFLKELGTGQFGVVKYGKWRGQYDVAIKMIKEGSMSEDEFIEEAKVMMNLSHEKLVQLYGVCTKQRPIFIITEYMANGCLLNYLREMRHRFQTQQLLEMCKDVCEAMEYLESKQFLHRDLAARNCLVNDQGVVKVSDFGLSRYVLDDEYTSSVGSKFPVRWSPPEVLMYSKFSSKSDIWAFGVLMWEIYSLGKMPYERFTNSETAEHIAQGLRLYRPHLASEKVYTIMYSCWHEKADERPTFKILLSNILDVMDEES

T1 sequence (Q06187 whole entry): as above

| Structure (SMILES) | IC50 [1] | IC50 [2] |
| --- | --- | --- |
| Cc1cc(-c2cc(Nc3cc4n(n3)CCN(C)C4=O)ncn2)ccc1CNC(=O)c1cnc(C(C)(C)C)s1 [Example I-278, 2-tert-butyl-N-[[2-methyl-4-[6-[(5-methyl-4-oxo-6,7-dihydropyrazolo[1,5-a]pyrazin-2-yl)amino]pyrimidin-4-yl]phenyl]methyl]thiazole-5-carboxamide] | < 10 nM | < 500 nM |
| Cc1cc(-c2cc(Nc3cc4n(n3)CCOC4)ncn2)ccc1CNC(=O)N1CC(OC(C)(C)C)C1 [Example I-287, 3-tert-butoxy-N-[[4-[6-(6,7-dihydro-4H-pyrazolo[5,1-c][1,4]oxazin-2-ylamino)pyrimidin-4-yl]-2-methyl-phenyl]methyl]azetidine-1-carboxamide] | < 10 nM | < 500 nM |
| Cc1cc(-c2ccnc(Nc3cnn(C4CCN(C)CC4)c3)n2)ccc1CN1Cc2nc(C(C)(C)C)sc2C1=O [Example I-289, 2-tert-butyl-5-[[2-methyl-4-[2-[[1-(1-methyl-4-piperidyl)pyrazol-4-yl]amino]pyrimidin-4-yl]phenyl]methyl]-4H-pyrrolo[3,4-d]thiazol-6-one] | < 10 nM | < 500 nM |
| Cn1cc(Nc2nccc(-c3ccc(CNC(=O)c4cnn(C(C)(C)C)c4)c(Cl)c3)n2)cn1 [Example I-291, 1-tert-butyl-N-[[2-chloro-4-[2-[(1-methylpyrazol-4-yl)amino]pyrimidin-4-yl]phenyl]methyl]pyrazole-4-carboxamide] | < 10 nM | < 500 nM |
| Cc1cc(-c2ccnc(Nc3cnn(C4CCC(C(=O)O)CC4)c3)n2)ccc1CNC(=O)c1cnn(C(C)(C)C)c1 (stereo not shown) [Example I-292, 4-[4-[[4-[4-[[(1-tert-butylpyrazole-4-carbonyl)amino]methyl]-3-methyl-phenyl]pyrimidin-2-yl]amino]pyrazol-1-yl]cyclohexanecarboxylic acid] | < 10 nM | < 500 nM |
| CC(C)n1cc(Nc2nccc(-c3ccc(CNC(=O)N4CCC(C(C)(C)C)C4)c(C(F)(F)F)c3)n2)cn1 (stereo not shown) [Example I-293, 3-tert-butyl-N-[[4-[2-[(1-isopropylpyrazol-4-yl)amino]pyrimidin-4-yl]-2-(trifluoromethyl)phenyl]methyl]pyrrolidine-1-carboxamide] | < 10 nM | < 500 nM |
| CC(C)(C)OC1CN(C(=O)NCc2ccc(-c3ccnc(Nc4cnn(C5CC5)c4)n3)cc2C(F)(F)F)C1 [Example I-294, 3-tert-butoxy-N-[[4-[2-[(1-cyclopropylpyrazol-4-yl)amino]pyrimidin-4-yl]-2-(trifluoromethyl)phenyl]methyl]azetidine-1-carboxamide] | < 10 nM | < 500 nM |
| COCCn1cc(Nc2nccc(-c3ccc(CNC(=O)N4CCC(C(C)(C)C)C4)c(C(F)(F)F)c3)n2)cn1 (stereo not shown) [Example I-295, 3-tert-butyl-N-[[4-[2-[[1-(2-methoxyethyl)pyrazol-4-yl]amino]pyrimidin-4-yl]-2-(trifluoromethyl)phenyl]methyl]pyrrolidine-1-carboxamide] | < 10 nM | < 500 nM |
| CC(C)(C)C1CCN(C(=O)NCc2ccc(-c3ccnc(Nc4cnn(C5CC5)c4)n3)cc2C(F)(F)F)C1 (stereo not shown) [Example I-296, 3-tert-butyl-N-[[4-[2-[(1-cyclopropylpyrazol-4-yl)amino]pyrimidin-4-yl]-2-(trifluoromethyl)phenyl]methyl]pyrrolidine-1-carboxamide] | < 10 nM | < 500 nM |
| CCn1cc(Nc2nccc(-c3ccc(CNC(=O)N4CCC(C(C)(C)C)C4)c(C(F)(F)F)c3)n2)cn1 (stereo not shown) [Example I-297, 3-tert-butyl-N-[[4-[2-[(1-ethylpyrazol-4-yl)amino]pyrimidin-4-yl]-2-(trifluoromethyl)phenyl]methyl]pyrrolidine-1-carboxamide] | < 10 nM | < 500 nM |
| CN1CCC(n2cc(Nc3nccc(-c4ccc(CNC(=O)N5CCC(C(C)(C)C)C5)c(C(F)(F)F)c4)n3)cn2)CC1 (stereo not shown) [Example I-298, 3-tert-butyl-N-[[4-[2-[[1-(1-methyl-4-piperidyl)pyrazol-4-yl]amino]pyrimidin-4-yl]-2-(trifluoromethyl)phenyl]methyl]pyrrolidine-1-carboxamide] | < 10 nM | < 500 nM |
| CC(C)OC1CN(C(=O)NCc2ccc(-c3ccnc(Nc4cnn(C(C)C)c4)n3)cc2C(F)(F)F)C1 [Example I-299, 3-isopropoxy-N-[[4-[2-[(1-isopropylpyrazol-4-yl)amino]pyrimidin-4-yl]-2-(trifluoromethyl)phenyl]methyl]azetidine-1-carboxamide] | < 10 nM | < 500 nM |
| COC1CN(C(=O)NCc2ccc(-c3ccnc(Nc4cnn(C)c4)n3)cc2C)C1 [Example I-300, 3-methoxy-N-[[2-methyl-4-[2-[(1-methylpyrazol-4-yl)amino]pyrimidin-4-yl]phenyl]methyl]azetidine-1-carboxamideacid] | 10 to 99 nM | < 500 nM |

Next, values leading:

| IC50 [1] | IC50 [2] | Structure (SMILES) |
| --- | --- | --- |
| < 10 nM | < 500 nM | Cc1cc(-c2cc(Nc3cc4n(n3)CCCN(CCO)C4)ncn2)ccc1CNC(=O)N1CC(OC(C)C)C1 [Example I-274, N-[[4-[6-[[5-(2-hydroxyethyl)-4,6,7,8-tetrahydropyrazolo[1,5-a][1,4]diazepin-2-yl]amino]pyrimidin-4-yl]-2-methyl-phenyl]methyl]-3-isopropoxy-azetidine-1-carboxamide] |
| < 10 nM | < 500 nM | Cc1cc(-c2cc(Nc3cc4n(n3)CCN(C)C4)ncn2)ccc1CNC(=O)N1CCC(C(C)(C)C)C1 (stereo not shown) [Example I-275, 3-tert-butyl-N-[[2-methyl-4-[6-[(5-methyl-6,7-dihydro-4H-pyrazolo[1,5-a]pyrazin-2-yl)amino]pyrimidin-4-yl]phenyl]methyl]pyrrolidine-1-carboxamide] |
| < 10 nM | < 500 nM | Cc1cc(-c2cc(Nc3cc4n(n3)CCOC4)ncn2)ccc1CNC(=O)c1cnc(C(C)(C)C)s1 [Example I-276, 2-tert-butyl-N-[[4-[6-(6,7-dihydro-4H-pyrazolo[5,1-c][1,4]oxazin-2-ylamino)pyrimidin-4-yl]-2-methyl-phenyl]methyl]thiazole-5-carboxamide] |
| < 10 nM | < 500 nM | Cc1cc(-c2cc(Nc3cc4n(n3)CCOC4)ncn2)ccc1CNC(=O)N1CC(OC(C)C)C1 [Example I-277, N-[[4-[6-(6,7-dihydro-4H-pyrazolo[5,1-c][1,4]oxazin-2-ylamino)pyrimidin-4-yl]-2-methyl-phenyl]methyl]-3-isopropoxy-azetidine-1-carboxamide] |
| < 10 nM | < 500 nM | Cc1cc(-c2cc(Nc3cc4n(n3)CC(C)N(C)C4)ncn2)ccc1CNC(=O)c1cnc(C(C)(C)C)s1 (stereo not shown) [Example I-279, 2-tert-butyl-N-[[4-[6-[(5,6-dimethyl-6,7-dihydro-4H-pyrazolo[1,5-a]pyrazin-2-yl)amino]pyrimidin-4-yl]-2-methyl-phenyl]methyl]thiazole-5-carboxamide] |
| < 10 nM | < 500 nM | Cc1cc(-c2cc(Nc3cc4n(n3)CC(C)N(C)C4)ncn2)ccc1CNC(=O)c1cnn(C(C)(C)C)c1 (stereo not shown) [Example I-280, 1-tert-butyl-N-[[4-[6-[(5,6-dimethyl-6,7-dihydro-4H-pyrazolo[1,5-a]pyrazin-2-yl)amino]pyrimidin-4-yl]-2-methyl-phenyl]methyl]pyrazole-4-carboxamide] |
| < 10 nM | < 500 nM | Cc1cc(-c2cc(Nc3cc4n(n3)CC(=O)N(C)C4)ncn2)ccc1CNC(=O)N1CCC(C(C)(C)C)C1 (stereo not shown) [Example I-281, 3-tert-butyl-N-[[2-methyl-4-[6-[(5-methyl-6-oxo-4,7-dihydropyrazolo[1,5-a]pyrazin-2-yl)amino]pyrimidin-4-yl]phenyl]methyl]pyrrolidine-1-carboxamide] |
| < 10 nM | < 500 nM | Cc1cc(-c2cc(Nc3cc4n(n3)CCN(C)C4C)ncn2)ccc1CNC(=O)c1cnn(C(C)(C)C)c1 (stereo not shown) [Example I-282, 1-tert-butyl-N-[[4-[6-[(4,5-dimethyl-6,7-dihydro-4H-pyrazolo[1,5-a]pyrazin-2-yl)amino]pyrimidin-4-yl]-2-methyl-phenyl]methyl]pyrazole-4-carboxamide] |
| < 10 nM | < 500 nM | Cc1cc(-c2cc(Nc3cc4n(n3)CCN(C)C4C)ncn2)ccc1CNC(=O)c1cnc(C(C)(C)C)s1 (stereo not shown) [Example I-283, 2-tert-butyl-N-[[4-[6-[(4,5-dimethyl-6,7-dihydro-4H-pyrazolo[1,5-a]pyrazin-2-yl)amino]pyrimidin-4-yl]-2-methyl-phenyl]methyl]thiazole-5-carboxamide] |
| < 10 nM | < 500 nM | Cc1cc(-c2cc(Nc3cc4n(n3)CCN(C)C4C)ncn2)ccc1CNC(=O)N1CCC(C(C)(C)C)C1 (stereo not shown) [Example I-284, 3-tert-butyl-N-[[4-[6-[(4,5-dimethyl-6,7-dihydro-4H-pyrazolo[1,5-a]pyrazin-2-yl)amino]pyrimidin-4-yl]-2-methyl-phenyl]methyl]pyrrolidine-1-carboxamide] |
| < 10 nM | < 500 nM | Cc1cc(-c2cc(Nc3cc4n(n3)CCCN(CCO)C4)ncn2)ccc1CNC(=O)c1cnc(C(C)(C)C)s1 [Example I-285, 2-tert-butyl-N-[[4-[6-[[5-(2-hydroxyethyl)-4,6,7,8-tetrahydropyrazolo[1,5-a][1,4]diazepin-2-yl]amino]pyrimidin-4-yl]-2-methyl-phenyl]methyl]thiazole-5-carboxamide] |
| < 10 nM | < 500 nM | Cc1cc(-c2cc(Nc3cc4n(n3)CC(=O)N(C)C4)ncn2)ccc1CNC(=O)c1cnc(C(C)(C)C)s1 [Example I-286, 2-tert-butyl-N-[[2-methyl-4-[6-[(5-methyl-6-oxo-4,7-dihydropyrazolo[1,5-a]pyrazin-2-yl)amino]pyrimidin-4-yl]phenyl]methyl]thiazole-5-carboxamide] |
| < 10 nM | < 500 nM | Cc1cc(-c2cc(Nc3cc4n(n3)CCOC4)ncn2)ccc1CNC(=O)N1CCC(C(C)(C)C)C1 (stereo not shown) [Example I-288, 3-tert-butyl-N-[[4-[6-(6,7-dihydro-4H-pyrazolo[5,1-c][1,4]oxazin-2-ylamino)pyrimidin-4-yl]-2-methyl-phenyl]methyl]pyrrolidine-1-carboxamide] |
